Laboratory results as given in ChEMBL document CHEMBL1138911 (Bioorg Med Chem Lett, 2006).

Columns and labels:
Mus musculus [1] = organism: Mus musculus; assay: animal or person; details: SHR, iv
Description: Analgesic activity in iv dosed SHR mouse by tail clip assay

Mus musculus [2] = assay: Analgesic activity in iv dosed DBA mouse by tail clip assay; type: functional
Mus musculus [3] = organism: Mus musculus; assay: animal or person; details: SHR, iv; remark: listed apart in the source
Description: Analgesic activity in iv dosed SHR mouse by writhing assay

Mus musculus [4] = organism: Mus musculus; assay: animal or person; details: SHR, iv; remark: listed apart in the source
Description: Analgesic activity in iv dosed SHR mouse by hot plate assay

Mus musculus [5] = organism: Mus musculus; assay: animal or person; details: DBA, iv
Description: Analgesic activity in iv dosed DBA mouse by hot plate assay

Mus musculus [6] = organism: Mus musculus; assay: animal or person; details: DBA, Tail, iv
Description: Analgesic activity in iv dosed DBA mouse by tail flick assay

Mus musculus [7] = organism: Mus musculus; assay: animal or person; details: SHR, Tail, iv
Description: Analgesic activity in iv dosed SHR mouse by tail flick assay

Mus musculus [8] = organism: Mus musculus; assay: animal or person; details: DBA, iv; remark: listed apart in the source
Description: Analgesic activity in iv dosed DBA mouse by writhing assay

CO[C@@]12CC[C@@]3(C[C@@H]1[C@](C)(O)C(C)(C)C)[C@H]1Cc4ccc(O)c5c4[C@@]3(CCN1CC1CC1)[C@H]2O5 [BUPRENORPHINE]
ED50 (Mus musculus [1]): 0.0466 mg/kg
Efficacy (Mus musculus [2]): 46.7%
ED50 (Mus musculus [3]): 0.0223 mg/kg
ED50 (Mus musculus [4]): 0.0233 mg/kg
ED50 (Mus musculus [5]): 0.195 mg/kg
ED50 (Mus musculus [6]): 0.312 mg/kg
ED50 (Mus musculus [7]): 0.0404 mg/kg
ED50 (Mus musculus [8]): 0.0295 mg/kg
